Here are results for six compounds from ChEMBL document CHEMBL3817783, “Identification of Potential Off-target Toxicity Liabilities of Catechol-O-methyltransferase Inhibitors by Differential Competition Capture Compound Mass Spectrometry” (J Med Chem, 2016).

Calls of active or inactive are those of the source. No cut-off for these calls is given here.

Data set [1] has as its target T1, 3-hydroxyisobutyryl-CoA hydrolase, mitochondrial (Homo sapiens) (UniProt Q6NVY1).
T1 sequence (whole entry): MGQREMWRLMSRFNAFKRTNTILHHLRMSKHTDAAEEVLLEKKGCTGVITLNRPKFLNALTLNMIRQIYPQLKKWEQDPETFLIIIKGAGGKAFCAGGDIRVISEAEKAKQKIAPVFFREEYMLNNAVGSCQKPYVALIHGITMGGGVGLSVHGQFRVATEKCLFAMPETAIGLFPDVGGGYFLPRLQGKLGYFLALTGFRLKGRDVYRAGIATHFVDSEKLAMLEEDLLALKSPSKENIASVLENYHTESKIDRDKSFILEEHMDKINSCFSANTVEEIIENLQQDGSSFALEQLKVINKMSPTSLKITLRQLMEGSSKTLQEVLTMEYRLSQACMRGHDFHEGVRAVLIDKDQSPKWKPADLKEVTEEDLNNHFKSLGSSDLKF
In words: Binding affinity to human recombinant HIBCH assessed as intensity fold change of cumulated normalized intensity of protein between capture and competition assay at 100 uM after 1 hr in presence of active Tcp-CC-13 by differential competition capture compound mass spectrometry.

Data set [2] has as its target Kynurenine--oxoglutarate transaminase 3 (Homo sapiens, UniProt Q6YP21). In words: Binding affinity to CCBL2 in human HepG2 assessed as intensity fold change of cumulated normalized intensity of protein between capture and competition assay at 100 uM after 1 hr in presence of active Tcp-CC-13 by differential competition capture compound mass spectrometry. The format is ADME.

Data set [3] deals with Aldo-keto reductase family 1 member B10 (Homo sapiens, UniProt O60218). The experiment in a line: Binding affinity to AKR1B10 in human HepG2 assessed as intensity fold change of cumulated normalized intensity of protein between capture and competition assay at 100 uM after 1 hr in presence of inactive Tcp-CC 14 by differential competition capture compound mass spectrometry. The format is ADME.

Data set [4] has as its target T2, Glutaryl-CoA dehydrogenase, mitochondrial (Homo sapiens, UniProt Q92947).
T2 sequence (Q92947 whole entry): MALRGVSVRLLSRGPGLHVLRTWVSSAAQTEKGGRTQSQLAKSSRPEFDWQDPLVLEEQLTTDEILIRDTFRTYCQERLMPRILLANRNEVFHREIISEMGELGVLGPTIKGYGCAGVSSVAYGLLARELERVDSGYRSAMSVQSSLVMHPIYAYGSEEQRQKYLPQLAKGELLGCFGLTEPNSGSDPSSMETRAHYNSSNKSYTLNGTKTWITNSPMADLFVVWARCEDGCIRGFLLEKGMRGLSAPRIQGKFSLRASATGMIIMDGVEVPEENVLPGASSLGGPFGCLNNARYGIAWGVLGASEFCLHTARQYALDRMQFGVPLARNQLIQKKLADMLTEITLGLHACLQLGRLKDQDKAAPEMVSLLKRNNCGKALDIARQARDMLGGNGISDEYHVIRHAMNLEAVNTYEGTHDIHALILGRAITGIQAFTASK
In words: Binding affinity to GCDH in human HepG2 assessed as intensity fold change of cumulated normalized intensity of protein between capture and competition assay at 100 uM after 1 hr in presence of active Tcp-CC-13 by differential competition capture compound mass spectrometry. The format is ADME.

In data set [5] the test system is HepG2. In words: Mitochondrial toxicity in human HepG2 cells assessed as mitochondrial membrane potential levels at 50 uM by TMRE-based mitochondria membrane potential assay relative to control. The format is cell-based. Particulars: hepg2, 50 µM.
Data set [6] concerns the target T1, 3-hydroxyisobutyryl-CoA hydrolase, mitochondrial (Homo sapiens). In words: Binding affinity to human recombinant HIBCH assessed as intensity fold change of cumulated normalized intensity of protein between capture and competition assay at 100 uM after 1 hr in presence of inactive Tcp-CC-14 by differential competition capture compound mass spectrometry.
Another data set has as its target T3, Pyridoxal kinase (Homo sapiens, UniProt O00764).
T3 sequence (O00764 whole entry): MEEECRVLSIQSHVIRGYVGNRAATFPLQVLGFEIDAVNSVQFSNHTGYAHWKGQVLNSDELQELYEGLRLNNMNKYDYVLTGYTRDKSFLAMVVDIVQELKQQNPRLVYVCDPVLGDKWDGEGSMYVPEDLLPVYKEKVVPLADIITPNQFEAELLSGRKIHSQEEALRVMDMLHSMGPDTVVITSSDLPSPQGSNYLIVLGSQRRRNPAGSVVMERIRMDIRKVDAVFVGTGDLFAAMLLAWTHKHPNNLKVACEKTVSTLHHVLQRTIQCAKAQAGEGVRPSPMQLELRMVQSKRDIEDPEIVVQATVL
The experiment in a line: Binding affinity to PDXK in human HepG2 assessed as intensity fold change of cumulated normalized intensity of protein between capture and competition assay at 100 uM after 1 hr in presence of inactive Tcp-CC 14 by differential competition capture compound mass spectrometry. Format: ADME.

For data set [7], the system named is HepG2. In words: Mitochondrial toxicity in human HepG2 cells assessed as mitochondrial membrane potential levels at 100 uM by TMRE-based mitochondria membrane potential assay relative to control. Format: cell-based. Particulars: hepg2, 100 µM.
In another data set the target is T4, Acireductone dioxygenase (Homo sapiens, UniProt Q9BV57).
T4 sequence (Q9BV57 whole entry): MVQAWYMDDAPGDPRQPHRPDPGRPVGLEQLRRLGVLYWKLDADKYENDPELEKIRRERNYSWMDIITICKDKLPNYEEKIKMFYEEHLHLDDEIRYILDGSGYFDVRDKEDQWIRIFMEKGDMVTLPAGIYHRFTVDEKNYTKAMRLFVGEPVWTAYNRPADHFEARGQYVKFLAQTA
The experiment in a line: Binding affinity to ADL1 in human HepG2 assessed as intensity fold change of cumulated normalized intensity of protein between capture and competition assay at 100 uM after 1 hr in presence of active Tcp-CC-13 by differential competition capture compound mass spectrometry. Format: ADME.

In data set [8] the target is T5, Catechol O-methyltransferase (Homo sapiens, UniProt P21964).
T5 sequence (P21964 whole entry): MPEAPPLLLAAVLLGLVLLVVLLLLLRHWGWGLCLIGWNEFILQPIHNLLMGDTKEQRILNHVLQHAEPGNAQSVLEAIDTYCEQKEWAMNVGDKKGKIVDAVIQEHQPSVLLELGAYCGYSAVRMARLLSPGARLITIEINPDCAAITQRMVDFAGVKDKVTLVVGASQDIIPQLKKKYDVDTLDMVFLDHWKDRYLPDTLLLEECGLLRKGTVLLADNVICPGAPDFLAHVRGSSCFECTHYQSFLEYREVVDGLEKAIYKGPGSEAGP
The experiment in a line: (§1) Inhibition of human recombinant His-tagged soluble COMT expressed in Escherichia coli BL21 using aesculetin as substrate after 60 mins by microplate assay in presence of SAM.

In data set [9] the target is T6, Protein NipSnap homolog 3A (Homo sapiens, UniProt Q9UFN0).
T6 sequence (Q9UFN0 whole entry): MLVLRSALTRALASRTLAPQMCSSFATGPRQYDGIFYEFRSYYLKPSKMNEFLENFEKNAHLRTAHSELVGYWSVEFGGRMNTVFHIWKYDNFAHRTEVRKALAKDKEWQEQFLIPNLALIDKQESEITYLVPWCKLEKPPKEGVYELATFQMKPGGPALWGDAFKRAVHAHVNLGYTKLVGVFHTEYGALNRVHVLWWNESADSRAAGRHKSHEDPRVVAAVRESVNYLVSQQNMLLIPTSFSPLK
The experiment in a line: Binding affinity to NIPSNAP3A in human HepG2 assessed as intensity fold change of cumulated normalized intensity of protein between capture and competition assay at 100 uM after 1 hr in presence of inactive Tcp-CC 14 by differential competition capture compound mass spectrometry. Format: ADME.

Data set [10] concerns the target T7, Catechol O-methyltransferase (Homo sapiens) (UniProt P21964).
T7 sequence (whole entry): T5 sequence (P21964 whole entry)
The description is as §1.

Kynurenine--oxoglutarate transaminase 3, sequence (Q6YP21 whole entry): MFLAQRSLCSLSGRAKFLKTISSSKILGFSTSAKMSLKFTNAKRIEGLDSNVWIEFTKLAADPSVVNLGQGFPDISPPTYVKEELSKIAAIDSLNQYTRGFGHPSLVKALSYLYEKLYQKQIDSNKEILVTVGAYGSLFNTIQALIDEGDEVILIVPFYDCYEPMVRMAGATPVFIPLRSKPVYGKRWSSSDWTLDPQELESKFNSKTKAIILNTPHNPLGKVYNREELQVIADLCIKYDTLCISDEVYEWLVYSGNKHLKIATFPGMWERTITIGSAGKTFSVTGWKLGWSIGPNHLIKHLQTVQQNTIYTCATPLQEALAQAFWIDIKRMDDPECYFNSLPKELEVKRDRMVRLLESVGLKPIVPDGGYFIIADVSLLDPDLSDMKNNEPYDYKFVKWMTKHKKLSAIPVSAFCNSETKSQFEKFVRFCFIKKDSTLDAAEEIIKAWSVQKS
Aldo-keto reductase family 1 member B10, sequence (O60218 whole entry): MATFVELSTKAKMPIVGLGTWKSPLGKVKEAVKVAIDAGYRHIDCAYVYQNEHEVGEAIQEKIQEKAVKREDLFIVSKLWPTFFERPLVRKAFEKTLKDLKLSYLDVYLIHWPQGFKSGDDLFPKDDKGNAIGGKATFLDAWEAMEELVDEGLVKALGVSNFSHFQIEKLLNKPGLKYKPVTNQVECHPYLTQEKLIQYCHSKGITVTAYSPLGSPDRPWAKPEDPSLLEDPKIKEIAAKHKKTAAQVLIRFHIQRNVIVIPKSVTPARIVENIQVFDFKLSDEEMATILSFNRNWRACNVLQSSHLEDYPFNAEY

On to `Cc1ccc(C(=O)c2cc(O)c(O)c([N+](=O)[O-])c2)cc1` [TOLCAPONE], for which the fold change (FC) in data set [1] amounted to 14.2; in data set [2] it was 4.12; in data set [3], 2.3; in [4], 5.82; on Pyridoxal kinase, 2.4; on Acireductone dioxygenase, 7.59. The Activity in the data set with HepG2 [5] is given as less than 20%; in the data set on HepG2 [7], 0%. In addition, the outcome in data set [6] was Active.

In general, IC50 refers to the concentration that inhibits the measured activity by half. `CCN1C(=O)S/C(=C/c2cc(O)c(O)c([N+](=O)[O-])c2)C1=O`: the fold change (FC) came to 1 in data set [1]; 3.4 in data set [2]; 3.1 in data set [3]; 6.34 in data set [4]; 24.9 at Pyridoxal kinase; 4.29 at Acireductone dioxygenase. Also, the “fold change (FC)” value in data set [9] was 3. Also, the Activity in the data set on HepG2 [5] is more than 50%. Also, in data set [8], the 50% inhibitory concentration (IC50) came to 179 nM.

In the case of `CCN(CC)C(=O)/C(C#N)=C/c1cc(O)c(O)c([N+](=O)[O-])c1` [ENTACAPONE], the fold change (FC) in data set [1] was found to be 1.04; in data set [2], 8.63; in data set [3], 2.98; in data set [4], 6.09; at Pyridoxal kinase it was 3.46; at Acireductone dioxygenase, 2.38. Also, the “fold change (FC)” value in data set [9] is on record as 2.11. Besides, the values for the Activity with HepG2 [5] and in the data set with HepG2 [7] were more than 50% and 40%, respectively.

`CCN(CC)C(=O)c1cc2cc(O)c(O)c([N+](=O)[O-])c2cc1C(=O)N(CC)CC`: the fold change (FC) in data set [1] is 5.35; in data set [2], 3.05; in data set [3], 4.7; in data set [4], 5.9; at Pyridoxal kinase, 16; at Acireductone dioxygenase, 3.67. The “fold change (FC)” value in data set [9] is reported as 7.5. In addition, the figures for the Activity in the data set on HepG2 [5] and in the data set with HepG2 [7] were less than 20% and 0%, respectively. In data set [6], the outcome was inactive.

As to `CN(Cc1ccc(C(=O)c2cc(O)c(O)c([N+](=O)[O-])c2)cc1)C(=O)CCCCCNC(=O)C[C@H](NC(=O)c1ccc(N=[N+]=[N-])cc1)C(=O)NCCCOCCOCCOCCCNC(=O)CCCC[C@@H]1SC[C@@H]2NC(=O)N[C@@H]21`, the IC50 in data set [8] amounted to 648 nM.

As to `Cc1ccc(C(=O)c2cc(OCCCCNC(=O)C[C@H](NC(=O)c3ccc(N=[N+]=[N-])cc3)C(=O)NCCCOCCOCCOCCCNC(=O)CCCC[C@@H]3SC[C@@H]4NC(=O)N[C@@H]43)c(O)c([N+](=O)[O-])c2)cc1`, the inhibition result in data set [10] was “inactive”.
